In PMC4339220 (2014):

Tests used:
[1] = test system: TGGAGA cognate hairpin (biotinylated) (DNA, hairpin) CCTTGGAGAGTTTTCTCTCCAAGG; test: SPR, global kinetic fit; conditions: 50 mM NaCl; 10 mM HEPES, 1 mM EDTA, pH 7.4, 0.05% P20, 25 °C
[2] = test system: TGGAGA cognate hairpin (DNA, hairpin) CCTTGGAGAGTTTTCTCTCCAAGG; test: UV melting; conditions: 50 mM NaCl; 10 mM HEPES, 1 mM EDTA, pH 7.4; 3 µM hairpin, 3 µM compound

SMILES | KD [1] [nM] | ΔTm [2] [°C]
CN(C)CCCNC(=O)CCNC(=O)c1cc(NC(=O)CCNC(=O)c2cc(NC(=O)c3cc(NC(=O)CCCNC(=O)c4nc(NC(=O)c5cc(NC(=O)c6nc(NC(=O)c7nccn7C)cn6C)cn5C)cn4C)cn3C)cn2C)cn1C | 36.4 ± 0.4 | –
CN(C)CCCNC(=O)CCNC(=O)c1cc(NC(=O)c2cc(NC(=O)c3cc(NC(=O)c4cc(NC(=O)CCCNC(=O)c5nc(NC(=O)CCNC(=O)c6nc(NC(=O)c7nccn7C)cn6C)cn5C)cn4C)cn3C)cn2C)cn1C | 12.1 ± 0.4 | –
CN(C)CCCNC(=O)CCNC(=O)c1cc(NC(=O)c2cc(NC(=O)c3cc(NC(=O)c4cc(NC(=O)CCCNC(=O)c5nc(NC(=O)c6cc(NC(=O)c7nc(NC(=O)c8nccn8C)cn7C)cn6C)cn5C)cn4C)cn3C)cn2C)cn1C | 2.5 ± 0.4 | 7.8
CN(CCCN)CCCNC(=O)CCNC(=O)c1cc(NC(=O)CCNC(=O)c2cc(NC(=O)c3cc(NC(=O)CCCNC(=O)c4nc(NC(=O)CCNC(=O)c5nc(NC(=O)c6nccn6C)cn5C)cn4C)cn3C)cn2C)cn1C | 26.3 ± 2.2 | –
CN(CCCN)CCCNC(=O)CCNC(=O)c1cc(NC(=O)c2cc(NC(=O)CCNC(=O)c3cc(NC(=O)CCCNC(=O)c4nc(NC(=O)CCNC(=O)c5nc(NC(=O)c6nccn6C)cn5C)cn4C)cn3C)cn2C)cn1C | 18.6 ± 0.8 | 3.6
CN(CCCN)CCCNC(=O)CCNC(=O)c1cc(NC(=O)c2cc(NC(=O)CCNC(=O)c3cc(NC(=O)CCCNC(=O)c4nc(NC(=O)c5cc(NC(=O)c6nc(NC(=O)c7nccn7C)cn6C)cn5C)cn4C)cn3C)cn2C)cn1C | 2.6 ± 0.2 | 8.0
CN(CCCN)CCCNC(=O)CCNC(=O)c1cc(NC(=O)c2cc(NC(=O)c3cc(NC(=O)c4cc(NC(=O)CCCNC(=O)c5nc(NC(=O)c6cc(NC(=O)c7nc(NC(=O)c8nccn8C)cn7C)cn6C)cn5C)cn4C)cn3C)cn2C)cn1C | 2.0 ± 0.2 | –
